As a reminder, the inhibition is the relative decrease from the control value, in per cent.

Experiment [1] has as its target T1, Mitogen-activated protein kinase 13 (Homo sapiens) (UniProt O15264).
T1 sequence (whole entry): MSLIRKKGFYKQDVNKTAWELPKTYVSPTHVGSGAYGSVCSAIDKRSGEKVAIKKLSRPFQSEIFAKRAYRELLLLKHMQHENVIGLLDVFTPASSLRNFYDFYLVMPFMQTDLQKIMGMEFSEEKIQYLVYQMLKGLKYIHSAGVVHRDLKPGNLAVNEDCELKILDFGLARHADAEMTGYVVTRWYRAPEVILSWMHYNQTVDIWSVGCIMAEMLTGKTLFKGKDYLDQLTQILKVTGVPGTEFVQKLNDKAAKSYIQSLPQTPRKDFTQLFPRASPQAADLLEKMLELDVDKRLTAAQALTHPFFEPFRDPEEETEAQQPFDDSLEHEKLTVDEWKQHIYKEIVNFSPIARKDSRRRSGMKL
Kind of experiment: Inhibition of human full length p38 delta expressed in Escherichia coli cell assessed as substrate phosphorylation using fluorescence-labelled peptides as substrate at 420 uM after 90 mins by microfluidic peptide phosphorylation assay.

Experiment [2] has as its target MAP kinase-activated protein kinase 3 (Homo sapiens) (UniProt Q16644). Kind of experiment: Inhibition of human full length MAPKAPK3 expressed in Escherichia coli cell assessed as substrate phosphorylation using fluorescence-labelled peptides as substrate at 420 uM after 90 mins by microfluidic peptide phosphorylation assay.
Experiment [3] has as its system Tyrosine-protein kinase ABL1 (Homo sapiens), P00519 [T315I]. Kind of experiment: Inhibition of human truncated ABL T315I mutant expressed in baculovirus assessed as substrate phosphorylation using fluorescence-labelled peptides as substrate at 420 uM after 90 mins by microfluidic peptide phosphorylation assay.
Experiment [4] concerns the target MAP kinase-activated protein kinase 2 (Homo sapiens) (UniProt P49137). Kind of experiment: Inhibition of human full length MAPKAPK2 expressed in baculovirus assessed as substrate phosphorylation using fluorescence-labelled peptides as substrate at 95 uM after 90 mins by microfluidic peptide phosphorylation assay.
For experiment [5], the target named is Insulin receptor (Homo sapiens) (UniProt P06213). Kind of experiment: Inhibition of human INSR catalytic domain expressed in baculovirus assessed as substrate phosphorylation using fluorescence-labelled peptides as substrate at 95 uM after 90 mins by microfluidic peptide phosphorylation assay.
Experiment [6] addresses MAP/microtubule affinity-regulating kinase 3 (Homo sapiens) (UniProt P27448). As to the kind of experiment: Inhibition of human full length c-TAK1 expressed in Escherichia coli cell assessed as substrate phosphorylation using fluorescence-labelled peptides as substrate at 9 uM after 90 mins by microfluidic peptide phosphorylation assay.
Experiment [7] addresses Glycogen synthase kinase-3 beta (Homo sapiens) (UniProt P49841). Kind of experiment: Inhibition of human full length GSK-3 beta expressed in baculovirus assessed as substrate phosphorylation using fluorescence-labelled peptides as substrate at 9 uM after 90 mins by microfluidic peptide phosphorylation assay.
In experiment [8] the target is Fibroblast growth factor receptor 2 (Homo sapiens) (UniProt P21802). Kind of experiment: Inhibition of human FGFR2 catalytic domain expressed in baculovirus assessed as substrate phosphorylation using fluorescence-labelled peptides as substrate at 8 uM after 90 mins by microfluidic peptide phosphorylation assay.
Fibroblast growth factor receptor 2 (Homo sapiens), sequence (P21802 22-821 limits assumed): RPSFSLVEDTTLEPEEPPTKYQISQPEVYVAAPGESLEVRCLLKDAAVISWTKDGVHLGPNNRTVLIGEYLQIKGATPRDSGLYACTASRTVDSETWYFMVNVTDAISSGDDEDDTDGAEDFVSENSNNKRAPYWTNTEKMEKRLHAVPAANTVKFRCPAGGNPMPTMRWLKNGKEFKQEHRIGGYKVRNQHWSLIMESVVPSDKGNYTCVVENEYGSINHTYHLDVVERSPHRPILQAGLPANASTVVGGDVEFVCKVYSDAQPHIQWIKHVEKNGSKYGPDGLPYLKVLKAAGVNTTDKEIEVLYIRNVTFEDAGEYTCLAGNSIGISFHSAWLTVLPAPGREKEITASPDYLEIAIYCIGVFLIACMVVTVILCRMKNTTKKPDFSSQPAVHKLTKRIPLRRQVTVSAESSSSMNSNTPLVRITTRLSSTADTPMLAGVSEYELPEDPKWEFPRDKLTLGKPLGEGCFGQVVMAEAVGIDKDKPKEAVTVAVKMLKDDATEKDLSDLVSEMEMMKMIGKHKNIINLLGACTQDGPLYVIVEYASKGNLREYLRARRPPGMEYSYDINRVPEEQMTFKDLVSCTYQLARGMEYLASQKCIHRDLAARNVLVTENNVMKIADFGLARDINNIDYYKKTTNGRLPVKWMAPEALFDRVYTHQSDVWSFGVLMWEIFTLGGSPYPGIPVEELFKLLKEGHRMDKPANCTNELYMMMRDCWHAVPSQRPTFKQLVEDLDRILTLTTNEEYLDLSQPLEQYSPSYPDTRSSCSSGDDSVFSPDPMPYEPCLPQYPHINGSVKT
Experiment [9] has as its target Serine/threonine-protein kinase MARK1 (Homo sapiens) (UniProt Q9P0L2). As to the kind of experiment: Inhibition of human full length MARK1 expressed in baculovirus assessed as substrate phosphorylation using fluorescence-labelled peptides as substrate at […] after 90 mins by microfluidic peptide phosphorylation assay.
Experiment [10] deals with Tyrosine-protein kinase Fer (Homo sapiens) (UniProt P16591). As to the kind of experiment: Inhibition of human FER catalytic domain expressed in baculovirus assessed as substrate phosphorylation using fluorescence-labelled peptides as substrate at […] after 90 mins by microfluidic peptide phosphorylation assay.
Tyrosine-protein kinase Fer (Homo sapiens), sequence (P16591 whole entry, looked up, the tested form may be a part): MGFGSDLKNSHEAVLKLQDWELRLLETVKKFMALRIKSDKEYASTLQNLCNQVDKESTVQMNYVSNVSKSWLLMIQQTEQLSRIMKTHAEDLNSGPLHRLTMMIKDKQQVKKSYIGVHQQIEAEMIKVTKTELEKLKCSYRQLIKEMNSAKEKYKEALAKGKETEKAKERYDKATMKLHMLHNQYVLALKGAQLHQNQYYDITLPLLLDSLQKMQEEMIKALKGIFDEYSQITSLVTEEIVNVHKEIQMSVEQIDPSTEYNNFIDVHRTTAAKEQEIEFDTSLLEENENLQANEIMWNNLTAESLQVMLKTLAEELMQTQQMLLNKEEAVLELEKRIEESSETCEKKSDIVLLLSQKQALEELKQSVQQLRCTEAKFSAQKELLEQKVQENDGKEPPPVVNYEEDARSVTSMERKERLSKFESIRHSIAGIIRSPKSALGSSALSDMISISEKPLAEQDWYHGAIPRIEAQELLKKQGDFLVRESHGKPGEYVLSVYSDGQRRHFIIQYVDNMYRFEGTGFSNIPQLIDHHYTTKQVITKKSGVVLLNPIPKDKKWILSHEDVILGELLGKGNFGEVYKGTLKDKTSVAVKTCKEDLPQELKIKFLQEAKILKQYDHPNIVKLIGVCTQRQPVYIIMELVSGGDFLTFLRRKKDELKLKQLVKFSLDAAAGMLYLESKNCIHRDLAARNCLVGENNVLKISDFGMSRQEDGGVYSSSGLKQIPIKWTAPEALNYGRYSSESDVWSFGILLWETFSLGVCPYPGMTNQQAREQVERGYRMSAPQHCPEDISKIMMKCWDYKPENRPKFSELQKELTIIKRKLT
The target of experiment [11] is Fibroblast growth factor receptor 2 (Homo sapiens) (UniProt P21802). Kind of experiment: Inhibition of human FGFR2 catalytic domain expressed in baculovirus assessed as substrate phosphorylation using fluorescence-labelled peptides as substrate at 1000 uM after 90 mins by microfluidic peptide phosphorylation assay.
Experiment [12] has as its target T2, Serine/threonine-protein kinase Sgk2 (Homo sapiens) (UniProt Q9HBY8).
T2 sequence (whole entry): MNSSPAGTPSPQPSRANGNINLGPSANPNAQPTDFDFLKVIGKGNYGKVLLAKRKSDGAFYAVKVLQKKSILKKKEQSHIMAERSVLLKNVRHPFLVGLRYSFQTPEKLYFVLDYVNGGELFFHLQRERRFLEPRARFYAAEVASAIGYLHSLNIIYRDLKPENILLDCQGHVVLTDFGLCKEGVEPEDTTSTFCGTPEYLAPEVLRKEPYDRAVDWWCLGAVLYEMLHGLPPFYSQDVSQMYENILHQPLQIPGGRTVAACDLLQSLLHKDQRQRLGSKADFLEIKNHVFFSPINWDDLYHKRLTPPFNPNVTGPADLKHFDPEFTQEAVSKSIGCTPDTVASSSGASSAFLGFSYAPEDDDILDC
As to the kind of experiment: Inhibition of human full length SGK2 expressed in baculovirus assessed as substrate phosphorylation using fluorescence-labelled peptides as substrate at 2 uM after 90 mins by microfluidic peptide phosphorylation assay.

Experiment [13] addresses T3, Aurora kinase C (Homo sapiens) (UniProt Q9UQB9).
T3 sequence (whole entry): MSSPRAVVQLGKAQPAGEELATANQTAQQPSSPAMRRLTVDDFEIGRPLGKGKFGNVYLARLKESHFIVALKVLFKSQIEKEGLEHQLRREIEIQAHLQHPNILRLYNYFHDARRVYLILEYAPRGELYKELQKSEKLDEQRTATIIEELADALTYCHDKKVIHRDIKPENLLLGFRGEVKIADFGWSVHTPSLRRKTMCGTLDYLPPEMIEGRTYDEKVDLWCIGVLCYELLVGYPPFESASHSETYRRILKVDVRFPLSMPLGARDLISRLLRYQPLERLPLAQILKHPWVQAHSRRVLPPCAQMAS
Kind of experiment: Inhibition of human full length AurC expressed in baculovirus assessed as substrate phosphorylation using fluorescence-labelled peptides as substrate at 2 uM after 90 mins by microfluidic peptide phosphorylation assay.

For experiment [14], the target named is T4, Calcium/calmodulin-dependent protein kinase type IV (Homo sapiens) (UniProt Q16566).
T4 sequence (whole entry): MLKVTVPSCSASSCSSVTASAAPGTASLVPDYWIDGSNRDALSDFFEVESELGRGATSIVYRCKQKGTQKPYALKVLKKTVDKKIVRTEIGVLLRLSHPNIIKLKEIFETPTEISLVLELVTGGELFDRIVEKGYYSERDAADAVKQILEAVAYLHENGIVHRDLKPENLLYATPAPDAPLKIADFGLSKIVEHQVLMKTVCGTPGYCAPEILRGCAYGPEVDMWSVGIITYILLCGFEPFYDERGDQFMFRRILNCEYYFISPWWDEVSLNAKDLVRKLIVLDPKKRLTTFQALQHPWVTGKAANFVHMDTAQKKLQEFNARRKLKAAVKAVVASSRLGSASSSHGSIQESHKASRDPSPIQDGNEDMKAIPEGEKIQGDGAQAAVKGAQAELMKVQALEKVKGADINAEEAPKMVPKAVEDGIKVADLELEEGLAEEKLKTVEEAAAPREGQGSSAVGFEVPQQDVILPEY
Kind of experiment: Inhibition of human full length CAMK4 expressed in baculovirus assessed as substrate phosphorylation using fluorescence-labelled peptides as substrate at 70 uM after 90 mins by microfluidic peptide phosphorylation assay.

Serine/threonine-protein kinase MARK1 (Homo sapiens), sequence (Q9P0L2 whole entry, looked up, the tested form may be a part): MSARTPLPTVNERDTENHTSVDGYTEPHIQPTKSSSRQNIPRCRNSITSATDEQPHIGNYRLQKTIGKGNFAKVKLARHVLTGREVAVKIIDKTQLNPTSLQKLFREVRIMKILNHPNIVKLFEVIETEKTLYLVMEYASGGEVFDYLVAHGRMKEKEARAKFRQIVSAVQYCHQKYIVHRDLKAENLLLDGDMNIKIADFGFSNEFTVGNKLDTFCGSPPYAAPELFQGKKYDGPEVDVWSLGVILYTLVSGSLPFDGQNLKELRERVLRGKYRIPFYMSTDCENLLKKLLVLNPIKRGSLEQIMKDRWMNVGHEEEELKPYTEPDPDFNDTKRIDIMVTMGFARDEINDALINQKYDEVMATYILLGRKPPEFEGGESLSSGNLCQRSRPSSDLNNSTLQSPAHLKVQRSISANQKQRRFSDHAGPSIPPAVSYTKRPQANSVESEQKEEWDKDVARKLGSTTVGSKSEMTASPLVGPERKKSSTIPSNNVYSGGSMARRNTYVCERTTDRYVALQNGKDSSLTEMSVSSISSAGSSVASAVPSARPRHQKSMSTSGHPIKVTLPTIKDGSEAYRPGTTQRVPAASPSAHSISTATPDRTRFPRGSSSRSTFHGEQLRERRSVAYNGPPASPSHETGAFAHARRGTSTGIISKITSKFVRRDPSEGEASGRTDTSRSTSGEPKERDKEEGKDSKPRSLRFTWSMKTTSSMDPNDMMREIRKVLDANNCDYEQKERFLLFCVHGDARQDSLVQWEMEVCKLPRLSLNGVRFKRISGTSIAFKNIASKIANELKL
MAP kinase-activated protein kinase 2 (Homo sapiens), sequence (P49137 whole entry, looked up, the tested form may be a part): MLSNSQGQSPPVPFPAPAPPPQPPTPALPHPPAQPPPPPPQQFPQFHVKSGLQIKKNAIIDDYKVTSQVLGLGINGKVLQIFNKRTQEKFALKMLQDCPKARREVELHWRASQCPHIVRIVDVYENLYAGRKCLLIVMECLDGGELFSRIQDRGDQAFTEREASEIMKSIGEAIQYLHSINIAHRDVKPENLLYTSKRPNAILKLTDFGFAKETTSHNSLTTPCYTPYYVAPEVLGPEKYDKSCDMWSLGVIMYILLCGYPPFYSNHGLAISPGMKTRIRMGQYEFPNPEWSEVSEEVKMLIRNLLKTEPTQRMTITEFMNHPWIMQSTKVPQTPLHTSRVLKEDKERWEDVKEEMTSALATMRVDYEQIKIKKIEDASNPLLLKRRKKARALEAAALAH
MAP kinase-activated protein kinase 3 (Homo sapiens), sequence (Q16644 whole entry, looked up, the tested form may be a part): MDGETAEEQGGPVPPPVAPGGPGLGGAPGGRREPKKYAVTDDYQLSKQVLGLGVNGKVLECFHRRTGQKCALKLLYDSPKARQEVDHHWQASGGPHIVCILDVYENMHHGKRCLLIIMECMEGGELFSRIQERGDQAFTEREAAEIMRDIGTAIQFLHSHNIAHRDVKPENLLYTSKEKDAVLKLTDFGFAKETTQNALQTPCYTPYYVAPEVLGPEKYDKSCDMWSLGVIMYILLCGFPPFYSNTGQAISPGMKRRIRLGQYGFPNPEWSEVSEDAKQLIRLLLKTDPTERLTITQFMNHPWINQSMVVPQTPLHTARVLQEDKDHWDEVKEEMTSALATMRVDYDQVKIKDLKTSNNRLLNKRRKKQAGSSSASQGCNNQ
MAP/microtubule affinity-regulating kinase 3 (Homo sapiens), sequence (P27448 whole entry, looked up): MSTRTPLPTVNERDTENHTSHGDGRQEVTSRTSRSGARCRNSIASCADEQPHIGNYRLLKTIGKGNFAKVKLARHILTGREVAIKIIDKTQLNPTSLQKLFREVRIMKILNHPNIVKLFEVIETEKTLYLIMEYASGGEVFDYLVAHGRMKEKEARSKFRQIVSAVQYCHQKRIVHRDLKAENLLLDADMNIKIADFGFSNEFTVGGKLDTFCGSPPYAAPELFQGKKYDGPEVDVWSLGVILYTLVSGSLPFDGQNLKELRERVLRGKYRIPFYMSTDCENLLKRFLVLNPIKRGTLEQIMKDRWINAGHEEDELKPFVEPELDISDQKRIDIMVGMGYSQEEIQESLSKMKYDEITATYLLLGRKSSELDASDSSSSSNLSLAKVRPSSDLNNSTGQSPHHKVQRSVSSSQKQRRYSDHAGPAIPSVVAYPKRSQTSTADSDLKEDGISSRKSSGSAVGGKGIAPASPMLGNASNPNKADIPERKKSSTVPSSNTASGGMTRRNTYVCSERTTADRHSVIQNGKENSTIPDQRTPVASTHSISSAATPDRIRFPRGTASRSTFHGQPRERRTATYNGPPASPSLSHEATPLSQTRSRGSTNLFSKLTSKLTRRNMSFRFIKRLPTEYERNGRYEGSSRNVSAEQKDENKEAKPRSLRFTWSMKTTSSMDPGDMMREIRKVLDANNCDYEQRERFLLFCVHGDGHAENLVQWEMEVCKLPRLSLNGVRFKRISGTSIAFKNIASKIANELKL
Glycogen synthase kinase-3 beta (Homo sapiens), sequence (P49841 whole entry, looked up, the tested form may be a part): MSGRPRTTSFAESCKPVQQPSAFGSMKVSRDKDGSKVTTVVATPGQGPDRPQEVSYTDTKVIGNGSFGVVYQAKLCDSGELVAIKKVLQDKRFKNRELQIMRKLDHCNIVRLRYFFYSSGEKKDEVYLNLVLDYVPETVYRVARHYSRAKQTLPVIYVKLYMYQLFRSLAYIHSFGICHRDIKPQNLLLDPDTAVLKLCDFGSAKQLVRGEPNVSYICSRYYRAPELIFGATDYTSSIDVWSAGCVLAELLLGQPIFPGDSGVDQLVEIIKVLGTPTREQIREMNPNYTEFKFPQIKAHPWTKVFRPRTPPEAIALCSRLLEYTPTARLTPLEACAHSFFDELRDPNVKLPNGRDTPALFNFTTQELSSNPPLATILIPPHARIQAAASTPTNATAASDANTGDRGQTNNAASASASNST

As to `c1nc(N2CCOCC2)c2nc[nH]c2n1`, the results for the inhibition in [1], in [2] and in [3] were 34%, 96.5% and 73%, respectively. `NCCc1ccc(-c2ncnc3[nH]cnc23)cc1`: the inhibition in experiment [4] is 56.5%; in experiment [5], 23.5%. On to `NCC1CN(c2ncnc3[nH]c4cnccc4c23)CCO1` (centres undefined), for which the inhibition in [6] amounted to 30%; in experiment [7] it was 94%.

With `NCC1CCN(c2ncnc3[nH]ccc23)CC1`, the inhibition in experiment [8] is 29.5%. Consider `COC(=O)c1cnc(Nc2cnc(C#N)cn2)cc1NCC1CCNCC1`, for which the figures for the inhibition in experiment [9] and in experiment [10] were 5% and 1%, respectively. Take `c1cnc2[nH]ccc2c1`: the inhibition in experiment [11] is 62%. `NC1CCN(c2ncnc3[nH]ccc23)CC1`: the inhibition in experiment [12] came to 46.5%; in [13], 13.5%. Consider `CNCc1ccc(-c2ncnc3[nH]cnc23)cc1`, for which the inhibition in experiment [14] is 77.5%.

These data come from ChEMBL document CHEMBL3132769, “Fragment growing to retain or alter the selectivity of anchored kinase hinge-binding fragments” (Medchemcomm, 2014).
